Source: PubChem BioAssay AID1117352
Calls of active or inactive are those of the source. No rule for the calls is given here.

Tested on: DLD-1 viability, CellTiter-Glo ATP luminescence
Assay: DLD-1 viability decrease, dose response, CellTiter-Glo luminescence, IC50 (AID 1117352)

Structure (SMILES) | IC50
OCCN1CCN(CC/C=C2/c3ccccc3Sc3ccc(C(F)(F)F)cc32)CC1 | 1470 nM
O=C(O)C1(C(=O)O)CCC1.[NH2-].[NH2-].[Pt+2] | > 20000 nM (inactive)
O=C1[O][Bi][O]c2ccccc21 | > 20000 nM (inactive)
CCCCCCCCCCCCCC[N+](C)(C)C | 475 nM
CC(=O)[O][Hg][c]1ccccc1 | 736 nM
Cc1ccc([N+](=O)[O-])[c]2c1[O][Hg]2 | 1620 nM
